The values below come from article PMC10619691, “Effect of cyclic substituents on the anti-cancer activity and DNA interaction of ruthenium(II) bis-phenanthroline dipyridoquinoline” (Frontiers in Molecular Biosciences, 2023).

Structures are written as SMILES.

The subject of one series is various cell lines. Description: epi-fluorescence nuclear staining (nuclear morphology). The following applies: 72 h treatment, DAPI staining; cisplatin at 5 μM. The series is classed as cell-based. On the procedure:
To assess the nuclear morphological changes caused by ruthenium complexes on the cell lines, the cells were stained using 4′,6-diamidino-2-phenylindole DAPI dye and analyzed under an EVOS epi-fluorescence microscope at a magnification of ×60 ([Lewandowska et al., 2013]). The protocol involves treating the cells with the complexes, culturing them in 6-well plates, and incubating them at 37°C for 72 h. The cells were then rinsed with PBS, trypsinized, and neutralized using culture media. The cells were then spun in a centrifuge at 2500 RPM for 3 min, and the supernatant was discarded. The cell pellet was then fixed with 15 μL of Carnoy’s solution, resuspended, and spread on a microscope slide. When the cells were dried, 2–3 drops of DAPI were dropped on the smear in the dark and covered with a slip. The slides were then viewed under the epi-fluorescence microscope, and the nuclei were characterized qualitatively. A total of 30 cells per slide were counted, and the number of cells with various nuclear morphologies was recorded. Cells were then classed as normal, chromatin-condensed, swollen, nuclear-condensed, and nuclear-fragmented cells based on their nuclear morphology.

Another series has as its system DU145 cells. Put plainly: cell cycle analysis. The following applies: DU145, after 72 h; control 1%. The series is classed as cell-based, human. The protocol: (§1) The cell cycle of cervical HeLa and prostate DU145 cancer cells was studied after treatment with VNK-572 and cisplatin, respectively (Figure 3). VNK-572 and cisplatin both reduced the G2 population after 72 h compared to control (e.g., 16%–11% in Hela (p = 0.06) and from 17% to 2% in the DU145 cell line (p = 0.003) for VNK-572) (Figure 3A). […] The DU145 cells saw a decrease in both phases following 72 h of treatment—from 68% to 40% and from 11% to 5% for the G1 and S phases, respectively (Figure 3A).

The test system of series [1] is HeLa cells. Description: cell cycle analysis. The class given is cell-based, human. On the procedure:
as §1

The next series deals with MDA-MB-231 (TNBC). Put plainly: sulphorhodamine B (SRB) cytotoxicity assay. The series is classed as cell-based, human. The following applies: 72 h incubation, mean ± SEM. The protocol:
(§2) The cytotoxicity profile of the ruthenium complexes […]-572, and POW-12A was assessed in various cancer cell lines, namely, human cervical cancer HeLa, prostate cancer cell line DU145, breast cancer cell line MDAMB231MB231, ovarian cancer cell line A2780, and cisplatin-resistant ovarian cancer cell line A2780-CP70, using the preferred screen of the National Cancer Institute, the sulphorhodamine (SRB) dye assay, and the trypan blue cell viability assay ([Skehan et al., 1990]; [Houghton et al., 2007]; [Strober, 2001]). To determine their selective toxicity profile, these complexes were also tested in a normal prostate cell line (PTN1A). From the similarity in chemical structures of the compounds, we deduced that a structure-activity relationship study will help elucidate key properties involved in the cytotoxic activity of this class of metal complexes. The sulphorhodamine B (SRB) assay was used to evaluate the cytotoxicity of each cancer line after treating them with the metal complexes in line with the previously established protocol ([Skehan et al., 1990]). A cell density of 3 × 10^4 cells/mL was treated with various concentrations (3, 10, 30, 50, and 100 μM) of each ruthenium complex by 1:200 dilutions of stock solutions (in DMSO) in culture media, using DMSO as a control. Then, 100 μL of the cell-drug suspension was added to the respective wells of a 96-well plate and incubated at 37°C for 72 h in a CO2-containing incubator. Following this, the cells were fixed using 25 ul of Carnoy's solution and left in the fridge (4°C) for 1 h. The plates were then rinsed with running water and tapped on paper to remove dead cells. The cells were then stained with 100 μL of sulphorhodamine B dye and left for 30 min, after which the dye was washed off using 1% acetic acid, and the plate was left to dry in the oven (60°C). The stained cells were then treated with 100 μL of Tris base (10 mM, pH 10) to solubilize the dye stain. Finally, the plates were analyzed using an Omega plate reader. Each assay was conducted in triplicate. % Cell response=Average of treated cells / Average of control cells x 100.
(In SRB staining, fixed cells bind dye roughly in proportion to their protein.)

The next series deals with HeLa cervical cancer. Description: sulphorhodamine B (SRB) cytotoxicity assay. The note with it: 72 h incubation, mean ± SEM. The series is classed as cell-based, human. The protocol: as §2
The subject of series [2] is A280-CP70 cisplatin-resistant ovarian cancer. Description: sulphorhodamine B (SRB) cytotoxicity assay. The class given is cell-based, human. The note with it: for IC50: SRB assay, 72 h incubation, mean ± SEM. On the procedure: as §2
In the next series the test system is DU145 prostate cancer. Put plainly: sulphorhodamine B (SRB) cytotoxicity assay. The series is classed as cell-based, human. The following applies: 72 h incubation, mean ± SEM. The protocol: as §2
The next series concerns PNT1A normal prostate. Description: sulphorhodamine B (SRB) cytotoxicity assay. The following applies: SRB assay, 72 h incubation; mean ± SEM. The series is classed as cell-based, human. On the procedure:
as §2

In another series the test system is A2780 ovarian cancer. Description: sulphorhodamine B (SRB) cytotoxicity assay. The class given is cell-based, human. The following applies: SRB assay, 72 h incubation; mean ± SEM. The protocol: as §2
For series [3], the system named is HeLa cells. Put plainly: Annexin V apoptosis assay. The series is classed as cell-based, human. On the procedure: To further analyze the cytotoxicity mechanisms, annexin V was used to determine whether VNK-572/cisplatin exerts an anti-cancer activity through apoptosis. The Annexin V assay was performed following the established procedure. The steps included treating the cells with the complex for 24, 48, and 72 h in 6-well plates and incubating at 37°C. The cells were then rinsed with PBS, trypsinized, and neutralized using culture media. The cells were then spun in the centrifuge at 2500 RPM for 3 min, and the supernatant was discarded. The cell pellet was then washed first with PBS and then with ×1 binding buffer. The cells were then suspended in approximately 1 mL of binding buffer (1–5 million cells), and approximately 100 ul of this suspension was stained with 5 μL of annexin V-APC dye for 15 min. The cells were then washed with binding buffer and resuspended in 200 μL of binding buffer before being stained with 5 ul of propidium iodide. The cells were then analyzed using a flow cytometer within 4 h.

The nature of series [4]: partition coefficient (log P), shake-flask method. The class given is physicochemical. The note with it: phosphate buffered saline (pH 7.4) / 1-octanol. The source says:
The role of lipophilicity in the activity of ruthenium (II) polypyridyl complexes is one that has been extensively reported ([Notaro and Gasser, 2017]). […] Based on this, we carried out a partition coefficient (log P) test using a shake-flask method to determine whether the marginal structural differences between VNK-754, VNK-572, and POW-12A affect their lipophilicity and to examine whether such a difference in lipophilicity confers any advantage to their anti-cancer activity. The log P results, as presented in Table 2, clearly show VNK-572 (0.014) and POW-12A (0.077) to be more lipophilic than VNK-754 (−0.874). […] Thus, along with varied DNA intercalating properties, this explains, in part, why there are appreciable differences in the cytotoxic effects of VNK572 and POW12A compared to VNK-754, even though they are generally similar in structure. For example, VNK-572 with an additional benzene ring can penetrate the bi-lipid-layered cell membrane better and achieve higher cellular and nuclear concentrations than VNK-754, producing a greater anti-tumor effect.
To study the lipophilicity of our complexes, we used the shake-flask method at 25.0 °C ± 0.1°C in line with the previously reported protocol ([Dubey et al., 2017]). Equal volumes of the aqueous phase (phosphate buffered saline, pH 7.4) and the 1-octanol phase were pre-saturated with each other overnight. A known amount of the complexes (respectively) was added to the aqueous phase, ensuring our final concentration was within the range of UV spectroscopic analysis; then, an equal volume of the pre-saturated […] phase was added. Both phases were then mixed in a conical flask and left shaking on a thermostatic shaker at a speed of 100 rpm overnight at room temperature. […] Considering that lipophilic compounds will partition into the octanol phase, the concentration of the complexes left in the aqueous phase was analyzed, respectively, by UV spectroscopy; then, the Log P value was calculated: Logp = Log10 ([solute] un-ionized octanol/[solute] un-ionized water).

The subject of series [5] is HeLa cells. Description: cellular localization by confocal fluorescence microscopy. The series is classed as cell-based, human. The following applies: 50 μM, 2 h incubation, co-localization with DAPI. The protocol:
This was further confirmed by the co-localization of these complexes with a nuclear counterstain (DAPI) (Figure 2).
Fluorescence microscopy was used to study cellular localization. HeLa cells were seeded on autoclaved coverslips in the 6-well plate and incubated at 37°C for 48 h, after which the culture media were replaced with media containing VNK-572 (50 μM) and VNK-754 (50 μM), respectively, and further incubation was performed for 2 h. Following this, the cells were fixed with Carnoy’s solution and washed twice with PBS thereafter. Finally, the HeLa cells were counterstained with DAPI, and the seeded coverslips were inverted and placed on slides for examination. A Leica confocal microscope was used for the observation of the samples using a magnification of ×63.

Series [6] has as its system RF I φX174 supercoiled circular DNA. Put plainly: supercoiled DNA unwinding by atomic force microscopy. The series is classed as binding. The following applies: AFM; P/D = 14 for POW-12A and VNK-572, P/D = 5 for VNK-754. The protocol: FIGURE 7 AFM height images RF I φX174 on a magnesium-soaked mica surface over an area of 2 µm. Samples with the ruthenium complex had solution mixing ratios of P/D = 14 for POW-12A and VNK-572; and of P/D = 5 VNK-754.
Samples for atomic force microscopy (AFM) were prepared on mica crystals cut into squares of approximately 1 cm^2. These squares were stuck with double-sided tape to a 15-mm diameter metal disc. Before sample preparation, Cellotape was used to remove the top layer of the mica crystal, giving a freshly cleaved surface layer on which the sample is to be deposited. Mica was soaked in a 0.1 M solution of MgCl2 for 5 min and blown dry, and Mg^2+ was used to help DNA (negatively charged) adhere to the negatively charged surface of the mica. For solutions containing DNA and POW-12A or VNK-572, a P/D value of 14 was used. For the solution containing DNA and VNK-754, a P/D value of 5 was used. Then, 2 μL of the solution was pipetted onto the mica surface and left for 10 min until the solvent had evaporated, leaving the DNA adhered to the surface. To remove excess salt, each sample was washed three times with 10 µL nanopure water, drying with nitrogen after each wash. AFM was conducted using a Bruker Multi-mode 2 atomic force microscope operated with a NanoScope V controller. ScanAsyst-AIR AFM tips were purchased from Bruker. Scans were run in tapping mode using ScanAsyst, measuring height, peak force error, and phase. The spring constant was adjusted to the spring constant of the tip, which is 0.4 N m^−1 for ScanAsyst-AIR tips; feedback parameters were set automatically by ScanAsyst Auto. Scans were run over 2 μm^2 areas with 512 lines. Images were prepared using NanoScope analysis software. Raw data were processed using first-order flattening and third-order plane fitting. If the background required smoothening due to large molecules on the surface, first-order flattening with a threshold of Z < 0.05 nm was used to improve the appearance of the background. […]

Regarding `N.N.[Cl][Pt][Cl]` [Cisplatin, cisplatin, reference compound], the nuclear morphology entry in the series on various cell lines is given as “nuclear swelling”. In addition, the sub-G1 population in the series with DU145 cells was found to be 62%; in the series with HeLa cells [1] (72 h of treatment, control 5% (VNK-572), 6% (cisplatin)), 25%. The “changes in G1 / S phases” value in the series on HeLa cells [1] is listed as “increase in S-phase arrest”. The IC50 (usually the midpoint of a concentration-inhibition curve) in the series with MDA-MB-231 (TNBC) is 37 ± 8.08 µM; with HeLa cervical cancer, 6 ± 0.58 µM; in series [2], 4 ± 0.58 µM; in the series with DU145 prostate cancer, 2.4 ± 0.09 µM; in the series on PNT1A normal prostate, 3.8 ± 0.58 µM; in the series with A2780 ovarian cancer, 2 µM. For the same compound, the “resistance factor (IC50 A2780-CP70/IC50 A2780)” value in [2] (from SRB IC50 values) is reported as “two-fold”. In the series on HeLa cells [3] (72 h of treatment, control 2%), the “Q2 (propidium iodide and annexin V APC-stained cells), late-stage apoptosis” value was 9%. For the same compound, the “Q4 (annexin V APC), early apoptosis” value in the series with HeLa cells [3] (72 h of treatment, control 14% (VNK-572), 13% (cisplatin)) is given as 39%. Further, the “Q1 (necrosis)” value in the series with HeLa cells [3] (after 72 h of treatment) is on record as less than 6%.
As for `F[P-](F)(F)(F)(F)F.F[P-](F)(F)(F)(F)F.[Ru+2].c1cnc2c(c1)c1cccnc1c1ncccc21.c1cnc2c(c1)ccc1cccnc12.c1cnc2c(c1)ccc1cccnc12` [VNK-754, ruthenium (II) bis-phenanthroline dipyridoquinoline], the LogP (as a rule, a log measure of how a compound divides between an organic and an aqueous phase) in [4] is given as −0.874. Moreover, the IC50 in the series on MDA-MB-231 (TNBC) is greater than 100 µM; in the series on HeLa cervical cancer, greater than 100 µM; in series [2], greater than 100 µM; in the series with DU145 prostate cancer it was greater than 100 µM; in the series on PNT1A normal prostate, greater than 100 µM; in the series on A2780 ovarian cancer, 74 ± 14.4 µM. Further, the cellular localization result in the series with HeLa cells [5] is “penetrate the nucleus”. For the same compound, in series [6], the “unwinding of supercoiled circular DNA” value is reported as “unwound”.
